Measurements: patent US11917959B2, “Multi-ear system to enhance monocot plant yield” (Monsanto Technology LLC, priority 2015, dated 2024)

Legend:
[1] = test system: haploid maize lines (Germplasm A, Germplasm B); assay: Co-dominant ear induction by PBZ soil drench in colchicine-doubled haploid maize (Example 1); format: in vivo
From the text: V1-V3 seedlings of two unique F1 hybrid-derived haploid maize lines, derived from: female heterotic group (Germplasm A) or male heterotic group (Germplasm B), were subjected to a bulk colchicine-based chromosome doubling treatment by removing the seedlings from soil or growth media at the V1-V3 growth stage and aligning their stems and wrapping them together along with several wooden rods into bundle a held together by a strip of aluminum foil (approximate foil strip dimensions were 6 in×18 in). The bundled plants were submerged in plant treatment solution comprising 1250 ppm of colchicine in a centrifuge container and then the entire sample was centrifuged at 50 g for 3 min while the shoot apical meristems (SAMs) remained submerged in the plant treatment agent solution.
Following the first centrifugation, the plant treatment solution was decanted and the seedlings subjected to an addition centrifugation at 335 g for 3 min. During the second centrifugation, the rod-wrap bundle supported the seedlings and prevented the SAMs from contacting the reserve treatment agent that was not absorbed by the plant during application of the centrifugal force.
Following the second centrifugation, the plants were removed from the centrifugation container and the rod-wrap bundle and rinsed with water to remove any remaining colchicine solution, and then recovered and tended in a light, humidity, and temperature-controlled greenhouse for several days before being transplanted to a nursery greenhouse. These centrifuge-based treatment methods are described in more detail in International application number PCT/US2015/028955, which is incorporated by reference herein in its entirety, however, standard doubling treatments can also be applied to any of the haploid doubling steps referred to herein.
Following colchicine doubling treatment, 15-20 plants from each germplasm were planted in pots at two different densities; either as single plants per pot (singles), or as two plants per pot (pairs).
Next, each plant received one of two different doses of PBZ, either 50 mL (low dose) or 60 mL (high dose) of a 2.5% PBZ solution (v/v; 0.4% of active ingredient) in water. These two different doses were applied by soil drench at either the V7 or V8 growth stage, which occurred a total of 23 or 26 days after the seedlings had been subjected to chromosome doubling treatment, respectively. A control group of plants received no treatment solution but were otherwise treated exactly as the experimental groups planted as singles. When pollen shed began at the tassels, the average number of silk-producing ears (i.e. co-dominant ears) were counted for each dosage, germplasm, and treatment time and the results summarized in Table. 1.

[2] = test system: haploid maize populations; assay: Doubling efficiency of four germplasms after co-dominant ear induction (Example 3); format: in vivo; design: DE50: unit not given beside the values; conditions: 60 mL 2.5% PBZ at V7 or V8
Procedure: Two F1 hybrid-derived (one male and one female) haploid populations (referred to herein as H1 and H2) and two inbred-derived haploid lines (male Germplasm B and female Germplasm A) were tested in this experiment. Seven days after planting, several dozen seedlings from each group were removed from the soil and subjected to a bulk colchicine-based chromosome doubling treatment as described above. After the chromosome doubling treatment, seedlings were transplanted to soil and tended in a greenhouse at standard maize growing conditions. When the seedlings had reached approximately the V7 or V8 stage (approximately 29 days after doubling under the growing conditions used), the seedlings were subjected to co-dominant ear induction treatment comprising 60 mL of 2.5% PBZ added to the soil surrounding the base of each stem.
The seedlings were then tended in standard greenhouse maize growing conditions until they flowered, at which time each plant that produced pollen was self-pollinated and then left undisturbed to await fertilization and kernel production. After approximately 2-3 weeks, ears were harvested and the kernels that formed on them (DH1) were counted to determine doubling efficiencies.
Doubling efficiencies (DE) were calculated under the different constraints described in the previous example to generate values for DE04, DE20, DE30, and DE50 for each of the four genotypes. Furthermore, the above doubling efficiencies were calculated once by considering only the kernels that formed on the primary ear of each plant (Ear1), once by considering only the kernels that formed on the primary and secondary ear of each plant (Ear2), once by considering only the kernels that formed on the primary, secondary, and tertiary ear of each plant (Ear3), and finally by considering all the kernels that formed on all the ears of each plant (Earall).

CC(C)(C)[C@@H](O)[C@@H](Cc1ccc(Cl)cc1)n1cncn1 (relative stereo) [PBZ, (±)-(R*, R*)-beta-((4-chlorophenyl)methyl)-alpha-(1,1,-dimethylethyl)-1H-1,2,4,-triazole-1-ethanol]
number of co-dominant ears formed per plant ([1]; V7, Germplasm A, pairs, high dose (60 mL 2.5% PBZ)): 3.4 | number of co-dominant ears formed per plant ([1]; V7, Germplasm A, pairs, low dose (50 mL 2.5% PBZ)): 3 | number of co-dominant ears formed per plant ([1]; V7, Germplasm A, singles, high dose (60 mL 2.5% PBZ)): 3.9 | number of co-dominant ears formed per plant ([1]; V7, Germplasm A, singles, low dose (50 mL 2.5% PBZ)): 3.4 | number of co-dominant ears formed per plant ([1]; V7, Germplasm B, pairs, high dose (60 mL 2.5% PBZ)): 1.5 | number of co-dominant ears formed per plant ([1]; V7, Germplasm B, pairs, low dose (50 mL 2.5% PBZ)): 1.5 | number of co-dominant ears formed per plant ([1]; V7, Germplasm B, singles, high dose (60 mL 2.5% PBZ)): 3.3 | number of co-dominant ears formed per plant ([1]; V7, Germplasm B, singles, low dose (50 mL 2.5% PBZ)): 2.7 | number of co-dominant ears formed per plant ([1]; V8, Germplasm A, pairs, high dose (60 mL 2.5% PBZ)): 2.2 | number of co-dominant ears formed per plant ([1]; V8, Germplasm A, pairs, low dose (50 mL 2.5% PBZ)): 2.3 | number of co-dominant ears formed per plant ([1]; V8, Germplasm A, singles, high dose (60 mL 2.5% PBZ)): 3.5 | number of co-dominant ears formed per plant ([1]; V8, Germplasm A, singles, low dose (50 mL 2.5% PBZ)): 2.3 | number of co-dominant ears formed per plant ([1]; V8, Germplasm B, pairs, high dose (60 mL 2.5% PBZ)): 1.5 | number of co-dominant ears formed per plant ([1]; V8, Germplasm B, pairs, low dose (50 mL 2.5% PBZ)): 1.5 | number of co-dominant ears formed per plant ([1]; V8, Germplasm B, singles, high dose (60 mL 2.5% PBZ)): 2.2 | number of co-dominant ears formed per plant ([1]; V8, Germplasm B, singles, low dose (50 mL 2.5% PBZ)): 2.3 | average EP (ear per plant), high dosage greater than low dosage by ([1]; all plants): 0.31 | average EP, high-dose higher than low-dose by ([1]; singles only): 0.55 | minimum increase over control plants ([1]; singles, low dose): ≥ 1.2 EP | DE04 ([2]; Ear1, Control A): 72.9 | DE20 ([2]; Ear1, Control A): 60.7 | DE30 ([2]; Ear1, Control A): 48.6 | DE50 ([2]; Ear1, Control A): 48.6 | DE04 ([2]; Ear1, Control B): 64.8 | DE20 ([2]; Ear1, Control B): 44.5 | DE30 ([2]; Ear1, Control B): 40.5 | DE50 ([2]; Ear1, Control B): 32.4 | DE04 ([2]; Ear1, Germplasm A): 64.6 | DE20 ([2]; Ear1, Germplasm A): 37.4 | DE30 ([2]; Ear1, Germplasm A): 30.6 | DE50 ([2]; Ear1, Germplasm A): 23.8 | DE04 ([2]; Ear1, Germplasm B): 56.7 | DE20 ([2]; Ear1, Germplasm B): 40.5 | DE30 ([2]; Ear1, Germplasm B): 40.5 | DE50 ([2]; Ear1, Germplasm B): 40.5 | DE04 ([2]; Earall, Control A): 81 | DE20 ([2]; Earall, Control A): 76.9 | DE30 ([2]; Earall, Control A): 76.9 | DE50 ([2]; Earall, Control A): 64.8 | DE04 ([2]; Earall, Control B): 68.8 | DE20 ([2]; Earall, Control B): 56.7 | DE30 ([2]; Earall, Control B): 56.7 | DE50 ([2]; Earall, Control B): 44.5 | DE04 ([2]; Earall, Germplasm A): 81.6 | DE20 ([2]; Earall, Germplasm A): 71.4 | DE30 ([2]; Earall, Germplasm A): 71.4 | DE50 ([2]; Earall, Germplasm A): 64.6 | DE04 ([2]; Earall, Germplasm B): 68.8 | DE20 ([2]; Earall, Germplasm B): 48.6 | DE30 ([2]; Earall, Germplasm B): 44.5 | DE50 ([2]; Earall, Germplasm B): 44.5
